Article PMC9961652 (International Journal of Molecular Sciences, 2023)
Where two headings read alike, the source gives them in different places.

Columns and labels:
washed human platelets [1] = assay: ATP secretion (Chrono-lume) after thrombin stimulation; format: cell-based; settings: 10 µM S-G04 or 20 µM R-G04; thrombin 0.1 U/mL
Procedure: (A–D) Washed human platelets were pre-incubated with 10 µM S-G04 or 20 µM R-G04 for 2 min before being stimulated with Arachidonic Acid (AA), U46619, ADP, or Thrombin. The % platelet aggregation was measured 5 min after agonist stimulation. (E) Washed human platelets were pre-incubated with 10 µM S-G04 or 20 µM R-G04 for 2 min and with Chrono-lume® for 30 s at 37 °C before being stimulated with 0.1 U/mL Thrombin. […] TxB2 formation was determined using a TxB2 ELISA kit. The differences among DMSO, R-G04, and S-G04 were analyzed using t-test, and the results are shown as means ± SDs of three independent experiments. (* p < 0.05, ** p < 0.01, *** p < 0.001, and **** p < 0.0001).
The in vitro antiplatelet activity of the compounds was assayed on washed human platelets using light transmission aggregometry. Platelet aggregation was performed using a 4-channel Lumi-aggregometer (Chronolog, PA, USA) at 37 °C and stirring speed of 900 rpm. […] The reactions were allowed to proceed for at least 4 min, and the results of platelet aggregation and ATP secretion were determined using Aggrolink software. Platelet aggregation was expressed as the maximum change in the light transmission, where the 100% value corresponded to treatment with the agonist alone. Compounds were evaluated in triplicate at nine compound concentrations ranging from 50 µM to 1 µM. […]

myosin light chain (MLC) = assay: Phosphorylation of myosin light chain (p-MLC), Western blot in collagen-stimulated platelets; format: cell-based, human; settings: different concentrations of R-G04 or S-G04; collagen 1 µg/mL
Procedure: (A,B) Washed human platelets were incubated with collagen (1 µg/mL) for 4 min, and the levels of RhoA-GTP formation were quantified with a GST-Rhotekin effector pull-down assay. The platelets were pre-incubated with 20 µM UC-177618, UC-177619, UC-177628, UC-177629, […], or […] for 2 min before being stimulated with collagen. The addition of ice-cold lysis buffer terminated the reaction. […] Relative amounts of the GTP-bound form of RhoA were quantified with densitometry measurements of total RhoA (T-RhoA) and normalized to untreated platelets. […] The samples were processed for Western blotting and probed for MLC and p-MLC, and phosphorylation was quantified by measuring the densitometry of total MLC (T-MLC). The differences between DMSO- and Rhosin-related compounds were analyzed with t-test, and the results are shown as means ± SDs of three independent experiments. […]
A volume of 250 µL of washed human platelets (2.5 × 10^8/mL) was pre-warmed to 37 °C along with the compounds or DMSO (0.1%) for 2 min before being stimulated with collagen (1 µg/mL) for 4 min. The reactions were terminated by adding 4x Laemmli buffer, and phosphorylated MLC protein was detected with Western blotting as previously reported. Phosphorylation was quantified by measuring the densitometry.

washed human platelets [2] = assay: Collagen-induced platelet aggregation, light transmission aggregometry (Born method); format: cell-based; settings: for IC50: collagen 1 µg/mL, dose-response curves, read-out: IC50 (95% CI) of platelet aggregation; for IC50 / activity at 20 µM: washed human platelets; for activity at 20 µM: compound 20 µM, means ± SDs of three experiments, 100% = agonist alone
Procedure: Light transmission aggregometry, i.e., the Born method, was used to determine in vitro antiplatelet aggregation activity using collagen as the agonist for platelet aggregation. Collagen was selected as the agonist, since it is the most thrombogenic component of the subendothelial layer. Collagen also serves as a substrate for platelet adhesion and as an inducer of platelet activation.
All experiments using human blood from healthy volunteers were performed according to the protocols approved by the Institutional Review Board at Cincinnati Children’s Hospital Medical Center, Cincinnati, Ohio. Each volunteer was required to sign an informed consent form approved by the IRB. Procedures for drawing human blood, isolating platelet-rich plasma (PRP), and preparing washed platelet suspensions were the same as those previously reported. […] PRP was obtained by means of the centrifugation of blood at 1400 rpm for 15 min at room temperature. PRP was centrifuged at 4000 rpm for 10 min at room temperature, and the platelet pellet was resuspended in HEPES Tyrode’s solution (pH 7.4) without calcium. Platelets were counted using Hemavet 950FS (Drew Scientific, Oxford, CT, USA), and the count was adjusted to 2.5 × 10^8/mL for aggregation studies.
The in vitro antiplatelet activity of the compounds was assayed on washed human platelets using light transmission aggregometry. Platelet aggregation was performed using a 4-channel Lumi-aggregometer (Chronolog, PA, USA) at 37 °C and stirring speed of 900 rpm. A volume of 250 µL of washed human platelets (2.5 × 10^8/mL) was pre-warmed to 37 °C along with the compounds or DMSO (0.1%) for 2 min before the addition of agonists such as collagen, AA, U46619 (a stable synthetic analog of thromboxane A2), ADP, and thrombin. For ATP secretion, platelets were pre-incubated with a luciferin/luciferase kit (Chrono-lume®) for 30 s at 37 °C before the addition of the agonist. The reactions were allowed to proceed for at least 4 min, and the results of platelet aggregation and ATP secretion were determined using Aggrolink software. Platelet aggregation was expressed as the maximum change in the light transmission, where the 100% value corresponded to treatment with the agonist alone. Compounds were evaluated in triplicate at nine compound concentrations ranging from 50 µM to 1 µM.

[3] = Platelet, read-out: % Platelet Aggregation, Collagen (1 µg/mL)
[4] = Platelet, read-out: % Platelet Aggregation, Collagen (5 µg/mL)

Row | IC50 (washed human platelets [2]; Homo sapiens, Platelet) [µM] | IC50 (washed human platelets [2]) [µM] | SMILES | ATP secretion (washed human platelets [1]) | phosphorylation of the MLC (myosin light chain (MLC)) | activity at 20 µM (washed human platelets [2]; [3]) [%] | activity at 20 µM (washed human platelets [2]; [4]) [%] | potency of S-G04 relative to R-G04 (washed human platelets [2]; from IC50, collagen 1 µg/mL)
1 | 7.8 | 7.96 | N[C@@H](Cc1c[nH]c2ccccc12)C(=O)N/N=C/c1ccc2nccnc2c1 [S-G04] | inhibited ATP secretion | inhibited the downstream phosphorylation of the MLC | 9.33 ± 4.93 | 20 ± 5 | three times more potent than R-G04
2 | 22.6 | – | N[C@H](Cc1c[nH]c2ccccc12)C(=O)N/N=C/c1ccc2nccnc2c1 [R-G04] | failed to have the same inhibitory effect | inhibited the downstream phosphorylation of the MLC | 70.3 ± 18.9 | 71.4 ± 15 | –
